Results on 22 compounds are retold here after patent publication US12421191B2, “3-hydroxyoxindole derivatives as CRHR2 antagonist” (RaQualia Pharma Inc., priority 2020, dated 2025).

A value given as a limit tells only on which side of the number the result lay.

In this experiment the target is T1, human CRHR2-alpha (Homo sapiens, UniProt Q13324).
T1 construct: host or cells: CHO-K1
T1 sequence (Q13324 1-411): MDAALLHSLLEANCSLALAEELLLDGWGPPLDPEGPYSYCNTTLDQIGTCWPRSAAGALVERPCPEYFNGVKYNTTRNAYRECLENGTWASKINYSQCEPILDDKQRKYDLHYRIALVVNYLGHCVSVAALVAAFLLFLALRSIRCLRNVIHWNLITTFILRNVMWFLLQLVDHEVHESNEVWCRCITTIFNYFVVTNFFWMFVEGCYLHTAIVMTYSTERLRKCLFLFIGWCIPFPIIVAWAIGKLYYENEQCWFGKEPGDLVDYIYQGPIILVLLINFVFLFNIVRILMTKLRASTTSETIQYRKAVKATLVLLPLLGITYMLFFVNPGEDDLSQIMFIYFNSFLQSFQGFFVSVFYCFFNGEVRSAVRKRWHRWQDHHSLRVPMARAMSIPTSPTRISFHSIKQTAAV
Kind of experiment: cAMP functional assay for human CRHR2 (LANCE Ultra TR-FRET). In kind it is cell-based. Particulars: inhibition of cAMP production in CHO-K1 cells stably expressing human CRHR2-alpha, EC90 of human urocortin2 as agonist; read-out: IC50 against CRHR2. As for the experimental part:
cAMP functional assay for human CRHR2 The ability of the compounds of this invention to inhibit either CRHR2 is assessed by 3′,5′-cyclic adenosine monophosphate (cAMP) production in cells using the LANCE Ultra cAMP assay kit (ParkinElmer), which are designed based on the homogeneous time-resolved fluorescence resonance energy transfer (TR-FRET) immunoassay.
CHO-K1 (Chinese hamster ovary) cells stably expressing human CRHR2-alpha (DiscoveRX, Cat. 95-0048C2) are grown in HAM's F12 media supplemented with 10% fetal bovine serum (FBS), 100 units/mL penicillin G, 100 microg/mL hygromycin and 0.5 microg/mL geneticin at 37° C. in 5% CO2 humidified incubator to 80% confluence. After 7 hours starvation treatment in culture media containing 0.1% FBS, the cells are washed with Hanks balanced salt solution (HBSS) and cryopreserved.
For cAMP assay, frozen cells are thawed and washed with HBSS, followed by resuspending cells in assay buffer (HBSS containing 0.1% bovine serum albumin, 0.5 mM isobutylmethylxanthine and 5 mM Hepes, pH 7.4) at the appropriate concentration for the assay. The cell suspensions are plated on 384-well microplates (Greiner Bio-One) at a density of 4,000 cells per well. After preincubating the cells with various concentrations of the compounds for 30 min at 25° C., an assay buffer containing EC90 concentration of agonist is added and the cells are incubated for 30 min at 25° C. Human urocortin2 (Peptide Institute) is used as agonists for CRHR2. For the termination of assay, europium-labeled cAMP tracer and ULight (registered trademark) dye labeled cAMP antibodies, both prepared with Lance-Ultra cAMP detection reagent (PerkinElmer) are added in the plate and incubate for 60 min at 25° C. After incubation, TR-FRET signal is detected by EnVision plate reader (PerkinElmer). The IC50 values for compounds are calculated from dose-response curves by fitting the percent inhibition using XLfit (ID Business Solutions).

Regarding `O=C(N[C@H]1CC[C@H](CN2C(=O)C(O)(c3cc(F)cs3)c3ccccc32)CC1)c1cc(Cl)cnc1C(F)F` (stereo partly shown) [Example 98, 5-chloro-2-(difluoromethyl)-N-((1r,4r)-4-((3-(4-fluorothiophen-2-yl)-3-hydroxy-2-oxoindolin-1-yl)methyl)cyclohexyl) nicotinamide], the IC50 is under 0.2 µM.

As for `COc1ccc(C2(O)C(=O)N(C[C@H]3CC[C@H](NC(=O)c4cc(Cl)cnc4C(F)F)CC3)c3ccccc32)s1` (stereo partly shown) [Example 99, 5-chloro-2-(difluoromethyl)-N-((1r,4r)-4-((3-hydroxy-3-(5-methoxythiophen-2-yl)-2-oxoindolin-1-yl)methyl)cyclohexyl) nicotinamide], the IC50 was under 0.2 µM.

On to `COc1ccc2c(c1)N(C[C@H]1CC[C@H](NC(=O)c3cc(Cl)cnc3C(F)F)CC1)C(=O)C2(O)c1ccccc1F` (stereo partly shown) [Example 105, 5-chloro-2-(difluoromethyl)-N-((1r,4r)-4-((3-(2-fluorophenyl)-3-hydroxy-6-methoxy-2-oxoindolin-1-yl)methyl)cyclohexyl) nicotinamide], for which the IC50 is under 0.2 µM.

As for `O=C(N[C@H]1CC[C@H](CN2C(=O)C(O)(c3cccc(F)c3F)c3ccccc32)CC1)c1cc(Cl)cnc1C(F)(F)F` (stereo partly shown) [Example 113, 5-chloro-N-((1r,4r)-4-((3-(2,3-difluorophenyl)-3-hydroxy-2-oxoindolin-1-yl)methyl)cyclohexyl)-2-(trifluoromethyl)nicotinamide], the IC50 was under 0.2 µM.

Consider `COc1cc(C2(O)C(=O)N(C[C@H]3CC[C@H](NC(=O)c4cc(Cl)cnc4C(F)F)CC3)c3cc(F)ccc32)c(F)cn1` (stereo partly shown) [Example 115, 5-chloro-2-(difluoromethyl)-N-((1r,4r)-4-((6-fluoro-3-(5-fluoro-2-methoxypyridin-4-yl)-3-hydroxy-2-oxoindolin-1-yl)methyl)cyclohexyl) nicotinamide], for which the IC50 was under 0.2 µM.

As to `O=C(N[C@H]1CC[C@H](CN2C(=O)C(O)(c3cccc(F)c3F)c3ccc(F)cc32)CC1)c1cc(Cl)cnc1C(F)F` (stereo partly shown) [Example 116, 5-chloro-2-(difluoromethyl)-N-((1r,4r)-4-((3-(2,3-difluorophenyl)-6-fluoro-3-hydroxy-2-oxoindolin-1-yl)methyl)cyclohexyl) nicotinamide], the IC50 was under 0.2 µM.

As to `O=C(N[C@H]1CC[C@H](CN2C(=O)C(O)(c3cccc(Cl)c3F)c3ccc(F)cc32)CC1)c1cc(Cl)cnc1C(F)F` (stereo partly shown) [Example 117, 5-chloro-N-((1r,4r)-4-((3-(3-chloro-2-fluorophenyl)-6-fluoro-3-hydroxy-2-oxoindolin-1-yl)methyl)cyclohexyl)-2-(difluoromethyl)nicotinamide], the IC50 is under 0.2 µM.

For `O=C(N[C@H]1CC[C@H](CN2C(=O)C(O)(c3cc(F)ccc3F)c3ccc(F)cc32)CC1)c1cc(Cl)cnc1C(F)F` (stereo partly shown) [Example 118, 5-chloro-2-(difluoromethyl)-N-((1r,4r)-4-((3-(2,5-difluorophenyl)-6-fluoro-3-hydroxy-2-oxoindolin-1-yl)methyl)cyclohexyl)nicotinamide], the IC50 is under 0.2 µM.

As to `O=C(N[C@H]1CC[C@H](CN2C(=O)C(O)(c3ccc(Cl)cn3)c3ccc(F)cc32)CC1)c1cc(Cl)cnc1C(F)F` (stereo partly shown) [Example 119, 5-chloro-N-((1r,4r)-4-((3-(5-chloropyridin-2-yl)-6-fluoro-3-hydroxy-2-oxoindolin-1-yl)methyl)cyclohexyl)-2-(difluoromethyl)nicotinamide], the IC50 is under 0.2 µM.

As for `O=C(N[C@H]1CC[C@H](CN2C(=O)C(O)(c3cccc(F)c3F)c3cc(F)ccc32)CC1)c1cc(Cl)cnc1C(F)F` (stereo partly shown) [Example 123, 5-chloro-2-(difluoromethyl)-N-((1r,4r)-4-((3-(2,3-difluorophenyl)-5-fluoro-3-hydroxy-2-oxoindolin-1-yl)methyl)cyclohexyl) nicotinamide], the IC50 was under 0.2 µM.

In the case of `COc1cc(C2(O)C(=O)N(C[C@H]3CC[C@H](NC(=O)c4cc(Cl)cnc4C(F)F)CC3)c3ccc(F)cc32)c(F)cn1` (stereo partly shown) [Example 124, 5-chloro-2-(difluoromethyl)-N-((1r,4r)-4-((5-fluoro-3-(5-fluoro-2-methoxypyridin-4-yl)-3-hydroxy-2-oxoindolin-1-yl)methyl)cyclohexyl) nicotinamide], the IC50 is under 0.2 µM.

For `O=C(N[C@H]1CC[C@H](CN2C(=O)C(O)(c3ccc(Cl)cn3)c3cc(F)ccc32)CC1)c1cc(Cl)cnc1C(F)F` (stereo partly shown) [Example 125, 5-chloro-N-((1r,4r)-4-((3-(5-chloropyridin-2-yl)-5-fluoro-3-hydroxy-2-oxoindolin-1-yl)methyl)cyclohexyl)-2-(difluoromethyl)nicotinamide], the IC50 is under 0.2 µM.

For the compound `COc1ccc(F)c(C2(O)C(=O)N(C[C@H]3CC[C@H](NC(=O)c4cc(Cl)cnc4C)CC3)c3ccccc32)c1` (stereo partly shown) [Example 128, 5-chloro-N-((1r,4r)-4-((3-(2-fluoro-5-methoxyphenyl)-3-hydroxy-2-oxoindolin-1-yl)methyl)cyclohexyl)-2-methylnicotinamide], the IC50 was under 0.2 µM.

With `Cc1cc(C2(O)C(=O)N(C[C@H]3CC[C@H](NC(=O)c4cc(Cl)cnc4C(F)F)CC3)c3ccccc32)cs1` (stereo partly shown) [Example 130, 5-chloro-2-(difluoromethyl)-N-((1r,4r)-4-((3-hydroxy-3-(5-methylthiophen-3-yl)-2-oxoindolin-1-yl)methyl)cyclohexyl) nicotinamide], the IC50 is under 0.2 µM.

Consider `Cc1ncc(Cl)cc1C(=O)N[C@H]1CC[C@H](CN2C(=O)C(O)(c3cc(F)cc(F)c3F)c3ccccc32)CC1` (stereo partly shown) [Example 132, 5-chloro-N-((1r,4r)-4-((3-hydroxy-2-oxo-3-(2,3,5-trifluorophenyl)indolin-1-yl)methyl)cyclohexyl)-2-methylnicotinamide], for which the IC50 was under 0.2 µM.

`O=C(N[C@H]1CC[C@H](CN2C(=O)C(O)(c3cc(F)cc(F)c3F)c3ccccc32)CC1)c1cc(Cl)cnc1C(F)F` (stereo partly shown) [Example 133, 5-chloro-2-(difluoromethyl)-N-((1r,4r)-4-((3-hydroxy-2-oxo-3-(2,3,5-trifluorophenyl)indolin-1-yl)methyl)cyclohexyl) nicotinamide]: the IC50 was under 0.2 µM.

`O=C(N[C@H]1CC[C@H](CN2C(=O)C(O)(c3ccc(F)c(F)c3F)c3ccccc32)CC1)c1cc(Cl)cnc1C(F)F` (stereo partly shown) [Example 135, 5-chloro-2-(difluoromethyl)-N-((1r,4r)-4-((3-hydroxy-2-oxo-3-(2,3,4-trifluorophenyl)indolin-1-yl)methyl)cyclohexyl) nicotinamide]: the IC50 is under 0.2 µM.

Consider `COc1ccc(C2(O)C(=O)N(C[C@H]3CC[C@H](NC(=O)c4cc(Cl)cnc4C)CC3)c3ccccc32)c(F)c1F` (stereo partly shown) [Example 139, 5-chloro-N-((1r,4r)-4-((3-(2,3-difluoro-4-methoxyphenyl)-3-hydroxy-2-oxoindolin-1-yl)methyl)cyclohexyl)-2-methylnicotinamide], for which the IC50 is under 0.2 µM.

With `O=C(N[C@H]1CC[C@H](CN2C(=O)C(O)(c3ccc(Cl)cn3)c3c(F)cccc32)CC1)c1cc(Cl)cnc1C(F)F` (stereo partly shown) [Example 140, 5-chloro-N-((1r,4r)-4-((3-(5-chloropyridin-2-yl)-4-fluoro-3-hydroxy-2-oxoindolin-1-yl)methyl)cyclohexyl)-2-(difluoromethyl)nicotinamide], the half-inhibitory concentration (IC50) was under 0.2 µM.

Take `Cc1ncc(Cl)cc1C(=O)N[C@H]1CC[C@H](CN2C(=O)C(O)(c3cccc(F)c3F)c3ccc(F)cc32)CC1` (stereo partly shown) [Example 143, 5-chloro-N-((1r,4r)-4-((3-(2,3-difluorophenyl)-6-fluoro-3-hydroxy-2-oxoindolin-1-yl)methyl)cyclohexyl)-2-methylnicotinamide]: the IC50 was under 0.2 µM.

On to `Cc1ccc2c(c1)N(C[C@H]1CC[C@H](NC(=O)c3cc(Cl)cnc3C(F)F)CC1)C(=O)C2(O)c1ccccc1F` (stereo partly shown) [Example 148, 5-chloro-2-(difluoromethyl)-N-((1r,4r)-4-((3-(2-fluorophenyl)-3-hydroxy-6-methyl-2-oxoindolin-1-yl)methyl)cyclohexyl) nicotinamide], for which the IC50 is under 0.2 µM.

For `Cc1ccc2c(c1)N(C[C@H]1CC[C@H](NC(=O)c3cc(Cl)cnc3C(F)F)CC1)C(=O)C2(O)c1ccncc1F` (stereo partly shown) [Example 149, 5-chloro-2-(difluoromethyl)-N-((1r,4r)-4-((3-(3-fluoropyridin-4-yl)-3-hydroxy-6-methyl-2-oxoindolin-1-yl)methyl)cyclohexyl) nicotinamide], the IC50 is under 0.2 µM.

For orientation: IC50 means the concentration that gives 50% inhibition.
